In patent US9296757B2, “Substituted benzothienopyrimidines” (BAYER PHARMA AKTIENGESELLSCHAFT, priority 2012, dated 2016) one finds IC50 data, which are given here for 17 compounds.

One may read the IC50 as the concentration needed to halve the response being measured. Low readings indicate greater potency in that assay, high ones weaker potency in that assay.

Structures are written as SMILES.

Chain of human full-length MKNK1 (Q9BUB5 other isoform, or with tags, fused parts or gaps T344D): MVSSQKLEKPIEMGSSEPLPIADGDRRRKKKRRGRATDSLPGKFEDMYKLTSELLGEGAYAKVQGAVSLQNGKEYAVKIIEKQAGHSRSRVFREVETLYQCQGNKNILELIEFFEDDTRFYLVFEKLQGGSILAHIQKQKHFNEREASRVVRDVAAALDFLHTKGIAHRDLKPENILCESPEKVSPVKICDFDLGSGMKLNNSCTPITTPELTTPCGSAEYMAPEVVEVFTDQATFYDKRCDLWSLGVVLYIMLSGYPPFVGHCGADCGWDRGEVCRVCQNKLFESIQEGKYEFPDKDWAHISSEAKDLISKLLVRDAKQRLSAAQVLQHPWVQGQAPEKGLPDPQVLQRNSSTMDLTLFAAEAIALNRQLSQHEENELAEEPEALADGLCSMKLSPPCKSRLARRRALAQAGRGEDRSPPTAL

This experiment concerns the target human full-length MKNK1 (Homo sapiens (Human), UniProt Q9BUB5, T344D). The experiment in a line: MKNK1 kinase high ATP assay (TR-FRET). To be noted: high ATP (2 mM final), 15 min preincubation with enzyme. The experiment is classed as biochemical. An outline of the steps: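 GST-tagged full-length MKNK1 (T344D), insect-cell expressed, preincubated 15 min at 22 °C with compound, then reacted 30 min at 22 °C with 2 mM ATP and 0.06 μM biotinylated peptide in HEPES pH 7.5 buffer (final concentrations). Phospho-peptide detected by TR-FRET (665/620 nm ratio), normalised to no-inhibitor and no-enzyme controls.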
Background: TR-FRET usually uses a lanthanide donor and a delayed reading to cut background.
The compound `O=C(C1CCc2c(sc3ncnc(Nc4ccc5[nH]c(=O)sc5c4)c23)C1)N1CC(N2CCCCC2)C1` (racemic) [Example 79, (RS)-6-[(7-{[3-(piperidin-1-yl)azetidin-1-yl]carbonyl}-5,6,7,8-tetrahydro[1]benzothieno[2,3-d]pyrimidin-4-yl)amino]-1,3-benzothiazol-2(3H)-one] showed an IC50 of 38 nM.

Compound `CN(C(=O)C1CCc2c(sc3ncnc(Nc4ccc5[nH]c(=O)sc5c4)c23)C1)C1CCOC(C)(C)C1` (racemic) [Example 80, (RS)-N-(2,2-dimethyltetrahydro-2H-pyran-4-yl)-N-methyl-4-[(2-oxo-2,3-dihydro-1,3-benzothiazol-6-yl)amino]-5,6,7,8-tetrahydro[1]benzothieno[2,3-d]pyrimidine-7-carboxamide] had an IC50 of 42 nM.

In turn, `CN1CCN(C(=O)C2CCc3c(sc4ncnc(Nc5ccc6[nH]c(=O)sc6c5)c34)C2)CC1CCO` (racemic) [Example 81, 6-{[(7RS)-7-{[(3RS)-3-(2-hydroxyethyl)-4-methylpiperazin-1-yl]carbonyl}-5,6,7,8-tetrahydro[1]benzothieno[2,3-d]pyrimidin-4-yl]amino}-1,3-benzothiazol-2(3H)-one] gave an IC50 of 34 nM.

`CN(CCN1CCOCC1)C(=O)C1CCc2c(sc3ncnc(Nc4ccc5[nH]c(=O)sc5c4)c23)C1` (racemic) [Example 82, (RS)-N-methyl-N-[2-(morpholin-4-yl)ethyl]-4-[(2-oxo-2,3-dihydro-1,3-benzothiazol-6-yl)amino]-5,6,7,8-tetrahydro[1]benzothieno[2,3-d]pyrimidine-7-carboxamide]: the midpoint of inhibition, the IC50, lay at 46 nM.

Take `O=C(C1CCc2c(sc3ncnc(Nc4ccc5[nH]c(=O)sc5c4)c23)C1)N1CC2(COC2)C1` (racemic) [Example 83, (RS)-6-{[7-(2-oxa-6-azaspiro[3.3]hept-6-ylcarbonyl)-5,6,7,8-tetrahydro[1]benzothieno[2,3-d]pyrimidin-4-yl]amino}-1,3-benzothiazol-2(3H)-one]: the 50% inhibitory concentration (IC50) was determined as 52 nM.

In the case of `COC1CCCN(C(=O)C2CCc3c(sc4ncnc(Nc5ccc6[nH]c(=O)sc6c5)c34)C2)C1` (racemic) [Example 84, 6-{[(7RS)-7-{[(3RS)-3-methoxypiperidin-1-yl]carbonyl}-5,6,7,8-tetrahydro[1]benzothieno[2,3-d]pyrimidin-4-yl]amino}-1,3-benzothiazol-2(3H)-one], inhibition was half-maximal at 30 nM (IC50).

Turning to `COc1cc2[nH]c(=O)sc2cc1Nc1ncnc2sc3c(c12)CCC(C(=O)N(C)C)C3` (racemic) [Example 85, (RS)-4-[(5-methoxy-2-oxo-2,3-dihydro-1,3-benzothiazol-6-yl)amino]-N,N-dimethyl-5,6,7,8-tetrahydro[1]benzothieno[2,3-d]pyrimidine-7-carboxamide], the midpoint of inhibition, the IC50, lay at 4 nM.

In turn, `CCN(C(=O)C1CCc2c(sc3ncnc(Nc4cc5sc(=O)[nH]c5cc4OC)c23)C1)C(C)C` (racemic) [Example 86, (RS)—N-Ethyl-N-isopropyl-4-[(5-methoxy-2-oxo-2,3-dihydro-1,3-benzothiazol-6-yl)amino]-5,6,7,8-tetrahydro[1]benzothieno[2,3-d]pyrimidine-7-carboxamide] showed an IC50 of 3 nM.

In turn, `CCCN(CCOC)C(=O)C1CCc2c(sc3ncnc(Nc4cc5sc(=O)[nH]c5cc4OC)c23)C1` (racemic) [Example 87, (RS)—N-(2-Methoxyethyl)-4-[(5-methoxy-2-oxo-2,3-dihydro-1,3-benzothiazol-6-yl)amino]-N-propyl-5,6,7,8-tetrahydro[1]benzothieno[2,3-d]pyrimidine-7-carboxamide] displayed an IC50 of 2 nM.

In the case of `CCCCN(CC#N)C(=O)C1CCc2c(sc3ncnc(Nc4cc5sc(=O)[nH]c5cc4OC)c23)C1` (racemic) [Example 88, (RS)—N-Butyl-N-(cyanomethyl)-4-[(5-methoxy-2-oxo-2,3-dihydro-1,3-benzothiazol-6-yl)amino]-5,6,7,8-tetrahydro[1]benzothieno[2,3-d]pyrimidine-7-carboxamide], the IC50 turned out to be 1 nM.

`CCCCN(C)C(=O)C1CCc2c(sc3ncnc(Nc4cc5sc(=O)[nH]c5cc4OC)c23)C1` (racemic) [Example 89, (RS)—N-Butyl-4-[(5-methoxy-2-oxo-2,3-dihydro-1,3-benzothiazol-6-yl)amino]-N-methyl-5,6,7,8-tetrahydro[1]benzothieno[2,3-d]pyrimidine-7-carboxamide]: the IC50 turned out to be 1.9 nM.

Consider `CCN(CCOC)C(=O)C1CCc2c(sc3ncnc(Nc4cc5sc(=O)[nH]c5cc4OC)c23)C1` (racemic) [Example 90, (RS)—N-Ethyl-N-(2-methoxyethyl)-4-[(5-methoxy-2-oxo-2,3-dihydro-1,3-benzothiazol-6-yl)amino]-5,6,7,8-tetrahydro[1]benzothieno[2,3-d]pyrimidine-7-carboxamide], for which the IC50 came to 1 nM.

For `N#CC1CN(C(=O)C2CCc3c(sc4ncnc(Nc5ccc6[nH]c(=O)sc6c5)c34)C2)C1` (racemic) [Example 91, (RS)-1-({4-[(2-Oxo-2,3-dihydro-1,3-benzothiazol-6-yl)amino]-5,6,7,8-tetrahydro[1]benzothieno[2,3-d]pyrimidin-7-yl}carbonyl)azetidine-3-carbonitrile], the IC50 is 38.7 nM.

As for `COc1cc2[nH]c(=O)sc2cc1Nc1ncnc2sc3c(c12)CCC(C(=O)N(CCN(C)C)Cc1ccccc1)C3` (racemic) [Example 92, (RS)—N-Benzyl-N-[2-(dimethylamino)ethyl]-4-[(5-methoxy-2-oxo-2,3-dihydro-1,3-benzothiazol-6-yl)amino]-5,6,7,8-tetrahydro[1]benzothieno[2,3-d]pyrimidine-7-carboxamide], half-maximal inhibition (IC50) was put at 0.6 nM.

`COCCN(CCOC)C(=O)C1CCc2c(sc3ncnc(Nc4cc5sc(=O)[nH]c5cc4OC)c23)C1` (racemic) [Example 93, (RS)—N,N-bis(2-methoxyethyl)-4-[(5-methoxy-2-oxo-2,3-dihydro-1,3-benzothiazol-6-yl)amino]-5,6,7,8-tetrahydro[1]benzothieno[2,3-d]pyrimidine-7-carboxamide] registered an IC50 of 0.7 nM.

`COc1cc2[nH]c(=O)sc2cc1Nc1ncnc2sc3c(c12)CCC(C(=O)O)C3` (centres unmarked) [Example 33, 4-[(5-Methoxy-2-oxo-2,3-dihydro-1,3-benzothiazol-6-yl)amino]-5,6,7,8-tetrahydro[1]benzothieno[2,3-d]pyrimidine-7-carboxylic acid] had an IC50 of 42 nM.

Take `O=C(C1CCc2c(sc3ncnc(Nc4ccc5[nH]c(=O)sc5c4)c23)C1)N1CCN(Cc2ccccc2)CC1` (centres unmarked) [Example 38, 6-({7-[(4-benzylpiperazin-1-yl)carbonyl]-5,6,7,8-tetrahydro[1]benzothieno[2,3-d]pyrimidin-4-yl}amino)-1,3-benzothiazol-2(3H)-one]: the midpoint of inhibition, the IC50, lay at 44 nM.
